# Literature values as cited in patent publication US20130280327A1, “ZOLPIDEM-BASED ORODISPERSIBLE PHARMACEUTICAL TABLET” (Sanofi, priority 2010, published 2013).
# Details: hypnotic action, oral, conventional formulations
structure (smiles),measurement,value
Cc1ccc(-c2nc3ccc(C)cn3c2CC(=O)N(C)C)cc1 [zolpidem],duration of action,up to 6 hours
